Values joined by “and” are separate entries in the source; they are usually repeats but may differ in a detail not shown here. Identical values can stand only once. Active and inactive are the calls of the source. The rule behind the calls is not given here.
Each molecule was assayed against Peptidyl-prolyl cis-trans isomerase FKBP1A (Homo sapiens) (UniProt P62942) (assay: FKBP12 binders, biophysical, NMR detection (AID 608)). Details: NMR binding, purified FKBP12.
Peptidyl-prolyl cis-trans isomerase FKBP1A (Homo sapiens), sequence (P62942 whole entry, looked up): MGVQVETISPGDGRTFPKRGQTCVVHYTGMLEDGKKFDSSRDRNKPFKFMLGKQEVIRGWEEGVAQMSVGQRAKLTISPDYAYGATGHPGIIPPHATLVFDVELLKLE
For `Cc1n[nH]c(=S)n(/N=C/c2cccs2)c1=O`, the Kd was > 4 mM (inactive). In the case of `CN(C)c1nc(N2CCOCC2)c2cnn(C)c2n1`, the Kd is reported as > 4 mM (inactive). In the case of `COc1cc2c(c(OC)c1OC)-c1ccc(O)c(=O)cc1[C@@H](NC(C)=O)CC2`, the Kd is reported as > 4 mM (inactive). For `Nc1csc(C(=O)O)c1`, the Kd was > 4 mM (inactive). `O=C1C2C3C=CC(C3)C2C(=O)N1c1ccccn1` (stereo unspecified) was tested, and the Kd was > 4 mM (inactive). `Cc1nc(-c2cccc(C(=O)O)c2)cs1` was tested, and the Kd was > 4 mM (inactive). In the case of `CN(C)C1CCS(=O)(=O)C1` (stereo unspecified), the Kd is reported as > 4 mM (inactive). With `COc1cc2c(cc1O)CCNC2C` (stereo unspecified) the Kd was > 4 mM (inactive). With `Nc1ccccc1-c1nc2ccccc2[nH]1` the Kd was 0.286 mM. In the case of `CC(=O)c1cccc(N=C2NC(=O)CS2)c1`, the Kd is reported as > 4 mM (inactive). For `CC(=O)O[C@H]1C[C@@]2(C)[C@@H](C[C@@H](O)C3[C@]2(C)CC[C@H]2[C@H](C)[C@H](O)CC[C@]32C)/C1=C(/CCC=C(C)C)C(=O)O` (stereo partly specified), the Kd was > 4 mM (inactive). `O=c1[nH]nc(Cc2ccncc2)c2ccccc12` was tested, and the Kd was > 4 mM (inactive). `O=C(NC1=NCCS1)c1ccc(Cl)s1` was tested, and the Kd was > 4 mM (inactive). In the case of `CC(=O)N(C)Cc1nc2ccccc2n1C`, the Kd is reported as > 4 mM (inactive). `CNC(=S)N1CCN=C1Nc1nc(C)cc(C)n1` was tested, and the Kd was > 4 mM (inactive). For `NC(CSCSCC(N)C(=O)O)C(=O)O` (stereo unspecified), the Kd was > 4 mM (inactive). For `COc1c2c(cc3occ(-c4ccc5c(c4)OCO5)c(=O)c13)OC(C)(C)C=C2`, the Kd was > 4 mM (inactive). With `Nc1ncnc2c1ncn2[C@@H]1O[C@H](CO)[C@@H](O)[C@H]1O` the Kd was > 4 mM (inactive). With `COc1cc(C(=S)N2CCC(C(N)=O)CC2)ccc1O` the Kd was > 4 mM (inactive). For `CSc1nc(-c2ccccc2)ccc1C(N)=O`, the Kd was > 4 mM (inactive). For `OCCN1CCN(C(=S)c2ccc(Cl)cc2)CC1`, the Kd was > 4 mM (inactive). For `O=C(CN1CCOCC1)Nc1nccs1`, the Kd was > 4 mM (inactive). With `Cc1nc(-c2cnccn2)sc1C(=O)O` the Kd was > 4 mM (inactive). In the case of `O=C(c1ccccc1)N1CCNCC1`, the Kd is reported as > 4 mM (inactive). `NS(=O)(=O)c1ccccc1Cl` was tested, and the Kd was > 4 mM (inactive). In the case of `CC(C)c1nnc(N)s1`, the Kd is reported as > 4 mM (inactive). With `Cc1n[nH]c(C)c1NC(=O)c1cccc(F)c1` the Kd was > 4 mM (inactive). In the case of `O=C(O)CCC(=O)c1c[nH]c2ccccc12`, the Kd is reported as > 4 mM (inactive). With `NC(=O)CNC(=O)c1ccc2ccccc2n1` the Kd was > 4 mM (inactive). With `O=C(O)c1ccc2c(c1)OCCO2` the Kd was > 4 mM (inactive). With `Cn1nnc2cc(C(=O)O)ccc21` the Kd was > 4 mM (inactive). With `CS/C(N)=C\C(C)=O` the Kd was > 4 mM (inactive). For `C(=N\c1ncn[nH]1)/c1cccs1`, the Kd was > 4 mM (inactive). `O=C1CCc2ccccc2CN1` was tested, and the Kd was > 4 mM (inactive). With `COc1cc(OC)c2c(OC)c(-c3ccc4c(c3)OCO4)c(=O)oc2c1` the Kd was > 4 mM (inactive). Molecule `O=[N+]([O-])c1ccc(NS(=O)(=O)N2CCCCC2)cc1` has a Kd of 0.06 mM. With `Cn1nc(C(=O)Nc2cccnc2)c2ccccc2c1=O` the Kd was > 4 mM (inactive). `O=C1NC(=S)NC(=O)C1=Cc1ccccc1O` was tested, and the Kd was > 4 mM (inactive). For `CC(=O)C1CC[C@H]2C3CC[C@H]4C[C@H](O)CC[C@]4(C)C3CC[C@]12C` (stereo partly specified), the Kd was > 4 mM (inactive). In the case of `Cc1occc1C(=O)NCc1ccccn1`, the Kd is reported as > 4 mM (inactive). For `COc1ccc(NC(=O)C(N)=O)cc1Cl`, the Kd was > 4 mM (inactive). In the case of `S=C(c1ccc(N2CCOCC2)cc1)N1CCOCC1`, the Kd is reported as > 4 mM (inactive). `CN(C)C(=O)CSc1cccc2cccnc12` was tested, and the Kd was > 4 mM (inactive). In the case of `Cc1ccc(C(=O)CS(C)(=O)=O)cc1`, the Kd is reported as > 4 mM (inactive). `NS(=O)(=O)c1ccc(NC(=O)c2cccs2)cc1` was tested, and the Kd was > 4 mM (inactive). In the case of `O=C(NCCO)c1cc2ccccc2c(=O)s1`, the Kd is reported as > 4 mM (inactive). `COc1c(C)c2c(c(O)c1C/C=C(\C)CCC(=O)O)C(=O)OC2` was tested, and the Kd was > 4 mM (inactive). With `COC(=O)c1ccc2ncccc2c1` the Kd was > 4 mM (inactive). For `Cc1nn(-c2ccccc2)c(Cl)c1C(N)=O`, the Kd was > 4 mM (inactive). With `COc1cc(S(=O)(=O)N(C)C)ccc1F` the Kd was > 4 mM (inactive). In the case of `O=C(O)C12CC3CC(CC(O)(C3)C1)C2`, the Kd is reported as > 4 mM (inactive). For `C=Cc1c(C)c2cc3[nH]c(cc4nc(cc5nc(cc1[nH]2)C(C)=C5CCC(=O)O)C(CCC(=O)O)=C4C)c(C)c3C=C`, the Kd was > 4 mM (inactive). For `O=S1(=O)CCC(NC(=S)N2CCCCC2)C1` (stereo unspecified), the Kd was > 4 mM (inactive). `Nc1nc2ccccc2n1CCN1CCCC1` was tested, and the Kd was > 4 mM (inactive). For `Cn1ncc(C(=O)O)c1-c1ccccc1`, the Kd was > 4 mM (inactive). `O=C(NN1CCOCC1)c1cccs1` was tested, and the Kd was > 4 mM (inactive). For `CC(C)(C)NC(=O)N1CCC(C(=O)O)CC1`, the Kd was > 4 mM (inactive). For `NS(=O)(=O)c1ccc(N=Cc2cccs2)cc1`, the Kd was > 4 mM (inactive). With `Nc1ccc2[nH]ncc2c1` the Kd was > 4 mM (inactive). With `COc1c(O)cc2c(c1O)[C@H]1O[C@H](CO)[C@@H](O)[C@H](O)[C@@H]1OC2=O` the Kd was > 4 mM (inactive). With `CC(=O)OC1CCC23CC1(C)CCC2C(C)(C)CC3OC(C)=O` (stereo unspecified) the Kd was > 4 mM (inactive). `OC[C@H]1O[C@@H](O[C@H]2[C@H](O)[C@@H](O)[C@@H](O)O[C@@H]2CO)[C@H](O)[C@@H](O)[C@@H]1O` was tested, and the Kd was > 4 mM (inactive). For `O=C1c2ccc(F)cc2C(=O)N1CO`, the Kd was > 4 mM (inactive). With `COc1ccc(-c2nnc(-c3ccc(N)cc3)o2)cc1` the Kd was > 4 mM (inactive). For `Cc1ccccc1-n1c(-c2ccncc2)n[nH]c1=S`, the Kd was > 4 mM (inactive). For `O=S(=O)(N1CCCCC1)n1nnc2ccccc21`, the Kd was > 4 mM (inactive) and 385 µM. `O=c1[nH]c(N2CCOCC2)nc2ccccc12` was tested, and the Kd was > 4 mM (inactive). `CCc1ccccc1NC(=O)c1cnccn1` was tested, and the Kd was > 4 mM (inactive). With `C=CCCCCCCCCCCCC(O)CC(O)CO` (stereo unspecified) (tested in a mixture with another compound) the Kd was > 4 mM (inactive). With `COc1ccc2c(c1OC)OC[C@@H](c1ccc(OC)c(OC)c1OC)C2` the Kd was > 4 mM (inactive). In the case of `CC(=O)O[C@@H]1CC2C(C)(CC[C@H](O)C2(C)C)C2CC[C@]3(C)C(=CC(=O)O[C@H]3c3ccoc3)C21C` (stereo partly specified), the Kd is reported as > 4 mM (inactive). For `NCC(=O)c1ccccc1`, the Kd was > 4 mM (inactive). With `OCC1Cc2ccccc2CN1` (stereo unspecified) the Kd was > 4 mM (inactive). `CC(=O)c1c(O)cc(C)n(Cc2ccccc2)c1=O` was tested, and the Kd was > 4 mM (inactive). For `O=c1/c(=C/c2ccccc2F)sc2ncnn12`, the Kd was > 4 mM (inactive). In the case of `NC(=O)Cn1nc(-c2ccco2)ccc1=O`, the Kd is reported as > 4 mM (inactive). `Nc1ccccc1C(=O)N1CCOCC1` was tested, and the Kd was > 4 mM (inactive). `Cn1c(=O)c2[nH]cnc2n(-c2ccccc2)c1=O` was tested, and the Kd was > 4 mM (inactive). In the case of `Cc1ccc(=O)[nH]c1`, the Kd is reported as > 4 mM (inactive). In the case of `CN1CCN(C2CCN(Cc3ccccc3)CC2)CC1`, the Kd is reported as > 4 mM (inactive). For `O=CN1CCN(C(=O)c2ccccc2Cl)CC1`, the Kd was > 4 mM (inactive). For `CNc1nc(OC)nc(N2CCOCC2)n1`, the Kd was > 4 mM (inactive). With `CS(=O)(=O)c1nncn1-c1ccccc1` the Kd was > 4 mM (inactive). In the case of `O=C(NC(=S)NC1CCSC1=O)c1ccco1` (stereo unspecified), the Kd is reported as > 4 mM (inactive). `Cc1nnc(SCC(N)=O)c2ccccc12` was tested, and the Kd was > 4 mM (inactive). `CC(=O)Nc1nc(C)c(C(C)=O)s1` was tested, and the Kd was > 4 mM (inactive).

Reference: PubChem BioAssay AID608 (Sanford-Burnham Center for Chemical Genomics, 2007)
